# Reference: US8802678B2, “Carbonylated (aza) cyclohexanes as dopamine D3 receptor ligands” (Bioprojet, priority 2006, dated 2014)
row,melting point [°C],Structure (SMILES)
1,192,"Cc1ccc(C(F)(F)F)cc1N1CCN(CC[C@H]2CC[C@H](NC(=O)CC#N)CC2)CC1 [Example 383, 2-Cyano-N-(4-{2-[4-(2-methyl-5-trifluoromethylphenyl)piperazin-1-yl]ethyl}cyclohexyl)acetamide]"
2,92,"CC(=O)CN1CCC(CCN2CCN(c3ccc(C)cc3)CC2)CC1 [Example 310, 1-{4-[2-(4-p-Tolylpiperazin-1-yl)ethyl]piperidin-1-yl}propan-2-one]"
3,142,"N#CCCCC(=O)N[C@H]1CC[C@H](CCN2CCN(c3ccc(F)c(Cl)c3)CC2)CC1 [Example 598, N-(4-{2-[4-(3-Chloro-4-fluorophenyl)piperazin-1-yl]ethyl}cyclohexyl)-4-cyanobutanamide]"
4,240,CC(=O)CN1CCC(CCN2CCN(c3cccc(CC(C)C)c3)CC2)CC1.Cl.Cl
5,153,"N#CCCCC(=O)N[C@H]1CC[C@H](CCN2CCN(c3cc(F)c(F)cc3F)CC2)CC1 [Example 473, 4-Cyano-N-(4-{2-[4-(2,4,5-trifluorophenyl)piperazin-1-yl]ethyl}cyclohexyl)butanamide]"
6,177,"COCCCC(=O)N[C@H]1CC[C@H](CCN2CCN(c3ccc(F)c(C(F)(F)F)c3)CC2)CC1 [Example 754, N-(4-{2-[4-(4-Fluoro-3-trifluoromethylphenyl)piperazin-1-yl]ethyl}cyclohexyl)-4-methoxybutanamide]"
7,168,"N#CCC(=O)N[C@H]1CC[C@H](CCN2CCN(c3cccc(Br)c3)CC2)CC1 [Example 280, N-(4-{2-[4-(3-Bromophenyl)piperazin-1-yl]ethyl}cyclohexyl)-2-cyanoacetamide]"
8,134,"COCCCC(=O)N[C@H]1CC[C@H](CCN2CCC(c3cccc(C(F)(F)F)c3)CC2)CC1 [Example 84, 4-Methoxy-N-(4-{2-[4-(3-trifluoromethylphenyl)piperidin-1-yl]ethyl}cyclohexyl)butanamide]"
9,180,"Cc1cc(F)cc(N2CCN(CC[C@H]3CC[C@H](NC(=O)CC#N)CC3)CC2)c1 [Example 725, 2-Cyano-N-(4-{2-[4-(3-fluoro-5-methylphenyl)piperazin-1-yl]ethyl}cyclohexyl)acetamide]"
10,158,Cc1cc(N2CCN(CC[C@H]3CC[C@H](NC(=O)CCCC#N)CC3)CC2)c(Cl)cc1F [Example 390]
11,227,"CC(=O)NCC(=O)N[C@H]1CC[C@H](CCN2CCN(c3ccccc3)CC2)CC1 [Example 128, 2-Acetylamino-N-{4-[2-(4-phenylpiperazin-1-yl)ethyl]cyclohexyl}acetamide]"

# Second part, the compound before the results:
row,Structure (SMILES),melting point [°C]
1,"COCC(=O)N[C@H]1CC[C@H](CCN2CCN(c3cccc(C(F)(F)F)c3F)CC2)CC1 [Example 260, N-(4-{2-[4-(2-Fluoro-3-trifluoromethylphenyl)piperazin-1-yl]ethyl}cyclohexyl)-2-methoxyacetamide]",142
2,"N#CCC(=O)N[C@H]1CC[C@H](CCN2CCN(c3cccc(Cl)c3C#N)CC2)CC1 [Example 246, N-(4-{2-[4-(3-Chloro-2-cyanophenyl)piperazin-1-yl]ethyl}cyclohexyl)-2-cyanoacetamide]",232 to 233
3,"COCCCC(=O)N[C@H]1CC[C@H](CCN2CCN(c3ccc(F)c(C#N)c3)CC2)CC1 [Example 661, N-(4-{2-[4-(3-Cyano-4-fluorophenyl)piperazin-1-yl]ethyl}cyclohexyl)-4-methoxybutanamide]",197
4,"Cc1ccc(F)c(N2CCN(CC[C@H]3CC[C@H](NC(=O)CCCC#N)CC3)CC2)c1 [Example 440, 4-Cyano-N-(4-{2-[4-(2-fluoro-5-methylphenyl)piperazin-1-yl]ethyl}cyclohexyl)butanamide]",156
5,N#CCCCC(=O)N[C@H]1CC[C@H](CCN2CC=C(c3ccccc3)CC2)CC1,171
6,"O=C(N[C@H]1CC[C@H](CCN2CCN(c3cccc(F)c3)CC2)CC1)C1=Cc2ccccc2C1 [Example 407, 1H-Indene-2-carboxylic acid (4-{2-[4-(3-fluorophenyl)piperazin-1-yl]ethyl}cyclohexyl) amide]",242
7,CC(=O)CN1CCC(CCN2CCc3cc(C#N)ccc3C2)CC1.Cl.Cl,249
8,CC(=O)CN1CCC(CCN2CCN(c3cccc(C(F)(F)F)c3C)CC2)CC1.Cl.Cl,300
9,"N#CCC(=O)N[C@H]1CC[C@H](CCN2CCN(c3ccc4c(c3)OCO4)CC2)CC1 [Example 315, N-{4-[2-(4-Benzo[1,3]dioxol-5-ylpiperazin-1-yl)ethyl]cyclohexyl}-2-cyanoacetamide]",226
10,CC(=O)CN1CCC(CCN2CCN(c3cc(C)cc(F)c3)CC2)CC1.Cl.Cl,273
11,"N#Cc1ccccc1N1CCN(CC[C@H]2CC[C@H](NC(=O)C3=CCCC3)CC2)CC1 [Example 74, Cyclopent-1-enecarboxylic acid (4-{2-[4-(2-cyanophenyl)-piperazin-1-yl]ethyl}cyclohexyl)-amide]",167
12,COCC(=O)N[C@H]1CC[C@H](CCN2CC=C(c3cccc(C#N)c3)CC2)CC1,117
13,CC(=O)CN1CCC(CCN2CCN(c3ccc(F)c(F)c3)CC2)CC1.Cl.Cl,249
14,"COc1cc(OC)cc(N2CCN(CC[C@H]3CC[C@H](NC(=O)CC#N)CC3)CC2)c1 [Example 180, 2-Cyano-N-(4-{2-[4-(3,5-dimethoxyphenyl)piperazin-1-yl]ethyl}cyclohexyl)acetamide]",181 to 183
15,"CNC(=O)CC1CCC(CCN2CCN(c3cccc(C(F)(F)F)c3)CC2)CC1 (mixture of isomers) [Example 295, N-Methyl-2-(4-{2-[4-(3-trifluoromethylphenyl)piperazin-1-yl]ethyl}cyclohexyl)acetamide cis/trans 50/50]",196
16,"O=C(COc1ccc(F)cc1)N[C@H]1CC[C@H](CCN2CCN(c3cccc(C(F)(F)F)c3)CC2)CC1 [Example 224, 2-(4-Fluorophenoxy)-N-(4-{2-[4-(3-trifluoromethylphenyl)-piperazin-1-yl]ethyl}cyclohexyl)-acetamide]",119
17,"O=C(N[C@H]1CC[C@H](CCN2CCN(c3cccc(C(F)(F)F)c3)CC2)CC1)C1=COCC1 [Example 564, 4,5-Dihydrofuran-3-carboxylic acid (4-{2-[4-(3-trifluoromethylphenyl)piperazin-1-yl]ethyl}cyclohexyl) amide]",175
18,"O=C(N[C@H]1CC[C@H](CCN2CCN(c3cccc(C(F)(F)F)c3F)CC2)CC1)C(F)F [Example 443, 2,2-Difluoro-N-(4-{2-[4-(2-fluoro-3-trifluoromethylphenyl)piperazin-1-yl]ethyl}cyclohexyl)acetamide]",156
19,"COCCCC(=O)N[C@H]1CC[C@H](CCN2CCN(c3ccc(Cl)c(C(F)(F)F)c3)CC2)CC1 [Example 755, N-(4-{2-[4-(4-Chloro-3-trifluoromethylphenyl)piperazin-1-yl]ethyl}cyclohexyl)-4-methoxybutanamide]",171
20,COCCCC(=O)N[C@H]1CC[C@H](CCN2CC=C(c3cccc(C#N)c3)CC2)CC1,178
21,Cc1cc(C)cc(C2=CCN(CC[C@H]3CC[C@H](NC(=O)CCCC#N)CC3)CC2)c1,166
